# Source: PMC12814185, “Receptor-Mediated Shuttling of a D‑Amino Acid Peptide Achieves High Nanomolar Cytosolic Concentrations” (Journal of the American Chemical Society, 2025)
# Bridges are numbered along the chain shown (N, C = ends). Roman numbers before positions name the chains, in order. Triazole bridges read from a SMILES are 1,4-linked. Where no end group is shown, it is not given here. Side-chain parts run from the residue outwards. [ ]: non-standard residue; d: D form. The star is where a group is joined. X1 = CN1C(=CC=CC=CC2=[N+](CCCCCC(=O)*)c3ccc(S(=O)(=O)[O-])cc3C2(C)C)C(C)(C)c2cc(S(=O)(=O)O)ccc21; Lys(N3) = [N-]=[N+]=NCCCC[C@H](N)C(=O)O; Cit = NC(=O)NCCC[C@H](N)C(=O)O; d(hCys) = N[C@H](CCS)C(=O)O; PEG3 = NCCOCCOCCOCCC(=O)O; Pra = C#CC[C@H](N)C(=O)O
# System: HEK293_CMKLR1-eYFP, HMEC-1, MDA-MB-231 and THP-1 cells
# Assay: Quantification of total cellular peptide uptake in cell lysate
# Format: cell-based
# Settings: 1 µM peptide, 72 h, fluorescence in lysate, all cell lines; performed thrice
# Description: page 7: Quantification of total cellular peptide uptake of different cell lines MDA-MB-231 cells and stably transfected HEK293_CMKLR1-eYFP cells were seeded at 165,000 cells per well and HMEC-1 cells at 55,000 cells per well into poly-ᴅ-lysine coated 12-well plates in their respective cell culture medium. […] the cells and incubated for 72 h. Cells were then washed with PBS and detached with trypsin/EDTA. […] Suspended cells were washed thrice with Fluorobrite DMEMTM and collected by centrifugation at 500 g for 5 min after each step. Finally, cells were resuspended in […] Fluorobrite DMEMTM and cell density was determined with an automated cell counter (Cell Drop, DeNovix). Cell suspensions were then lysed by ultrasonic homogenization (U[…], Hielscher) for 2 × 10 s on ice to prevent self-quenching of Cy5 due to high local concentrations in vesicles. […] Quantification of receptor-mediated uptake in CMKLR1-expressing cell lines. (A) Cell-surface enzyme-linked immunosorbent assay (ELISA) for the quantification of CMKLR1 expression of different cell lines. […] For quantification, cells were detached, counted, lysed by ultrasonic homogenization, and fluorescence was measured in the lysate. Total peptide uptake per cell was calculated from a dilution series of Cy5-labeled peptide with known concentration. […]
substance,measurement,value
I: GSVSHHHHHHGGHHHH[PEG3][dK]([PEG3-X1])[dD][dW][dW][dP][dL][dA][dF][dE][dA][dL][dL][dR]GEV[Cit][PEG3][Pra]-NH2 / II: Ac-[Lys(N3)]YFP[d(hCys)]QFAFC-OH (triazole I:36-II:1; disulfide II:5-II:10) [3Cy],total peptide uptake per cell,uptake slightly higher than that of 2Cy
